# From US12421276B2 (priority 2016, dated 2025)
# Where “and” joins values, the source holds several entries; their conditions need not be identical. Equal entries are not always repeated. Where two headings read alike, the source gives them in different places. Where a SMILES comes first, the peptide text is derived from it. [ ]: non-standard residue; d: D form. The star is where a group is joined. ξ: configuration not given here. ξpY = NC(Cc1ccc(OP(=O)(O)O)cc1)C(=O)O; Ile(3ξ) = CCC(C)[C@H](N)C(=O)O; Hexanoyl = CCCCCC(=O)*; Ahx = NCCCCCC(=O)O
# Tests used:
# [1] = Metabolic stability in simulated intestinal fluid (SIF), pH 6.8, with or without pancreatin; format: in vitro ADME; conditions: 5 μM, 37° C.
# Description: (§1) Metabolic Stability in SIF and SGF (Simulated Intestinal and Gastric Fluid)
# Buffer 3=SIF without enzyme
# Buffer 4=SIF with 1% pancreatin
# (§2) SIF was prepared freshly with 8.7 mM NaOH, 28.65 mM NaH2PO4, 105.85 mM NaCl, with a final pH of 6.8. SGF was prepared freshly with 34.2 mM NaCl, with a final pH of 1.2. Enzymes such as pepsin or pancreatin were added to some buffers. Human and rat plasma (K2 EDTA) were purchased from BioreclamationIVT.
# (§3) Compounds were dissolved as 1.5 mM DMSO stocks. Compounds were transferred to SIF, SGF, or plasma at 5 μM on a 96-well deep well plate. After mixing, samples were transferred to several 96-well plates (25 μL/well), and incubated at 37° C. The extent of metabolism was calculated as the disappearance of the test compound, compared to the 0-min control reaction incubations. Candesartan Cilexetil and omeprazole were included as positive controls for SIF and SGF, respectively, to verify assay performance.
# (§4) At each of the time points, 150 μL of quench solution (100% acetonitrile with 0.1% formic acid) with internal standard (bucetin for positive ESI mode and warfarin for negative ESI mode) was transferred to each well. Plates were sealed and centrifuged at 4° C. for 15 minutes at 4000 rpm. The supernatant was transferred to fresh plates for LC/MS/MS analysis.
# (§5) Elution conditions are detailed in the table below.
# (§6) Initial rates of the clearance of test compounds were calculated using linear regression of semi-log plot of % remaining of compounds versus time. The elimination rate constant (equals to −slope) of the linear regression was then used to determine t½ values.
# [2] = Metabolic stability in simulated gastric fluid (SGF), pH 1.2, with or without pepsin; format: in vitro ADME; conditions: 5 μM, 37° C.
# Description: as §1
# Buffer 1=SGF without enzyme
# Buffer 2=SGF with 0.32% pepsin
# as §2, §3, §4, §5, §6
# [3] = format: in vivo, rat
# Description: • 1. Eight (8) male JVC SD rats (purchased from Charles River Lab) were monitored daily for body condition and health status during the 3-5 days acclimation period. The rats were randomly assigned into […] (n=4). • 2. […] The dosed rats were individually placed into a metabolic cage, and have access to food and water at all times. The urine from each rat was collected daily from the metabolic cages, and kept in dry ice. • 4. At predose (0 min), 5 min, 15 min, 30 min, 1 hr, 2 hr, 8 hr, and 24 hr post dosing, approximately 200 ul blood samples were collected from each rat and transferred to EDTA tubes. • 5. The blood samples in EDTA vials were centrifuged at 4° C. and 6,000 rpm for 10 minutes to generate ˜100 μl of plasma per sample. Blood samples were processed as quickly as possible and remain no longer than 2 min at room temperature and no longer than 15 minutes at 4° C. prior to processing. • 6. All samples were transferred for bioanalytic assay using LCMS
# Caco-2 cells = assay: Caco-2 permeability study with or without P-gp inhibitor GF120918; conditions: for Abs. Quotient: (Papp A-B with inhibitor − without inhibitor)/Papp A-B with inhibitor; for Caco-2 Cells Permeability Recovery Rate: 1 hr, pH 7.4
# Description: Buffer=HBSS, pH 7.4 with 5 mM HEPES
# Caco-2 cell plates were obtained commercially and were maintained for 21 days at 37° C. with 5% CO2. Cells were washed with Hank's Balanced Salt Solution (HBSS) 30 min before starting the experiment. Test compound solutions were prepared by diluting from DMSO stock into HBSS buffer in the presence or absence of 10 μM of P-gp inhibitor GF120918. The final DMSO concentration is 0.2%. Prior to each experiment, cell monolayer integrity was verified by transendothelial electrical resistance (TEER). Transport experiment was initiated by adding test compounds to the apical (75 μL) side. Transport plates were incubated at 37° C. in a humidified incubator with 5% CO2. Samples were taken from the donor and acceptor compartments after 1 hr and analyzed by liquid chromatography with tandem mass spectrometry (LC/MS/MS).
# Apparent permeability (Papp) values were calculated using the following equation: Papp=(dQ/dt)/A/C0
# where dQ/dt is the initial rate of amount of test compound transported across cell monolayer, A is the surface area of the filter membrane, and C0 is the initial concentration of the test compound. C0 is calculated for each condition using a 4-point calibration curve.
# Absorption quotient between the two assay conditions was calculated by the following equation:
# Absorption quotient (AQ)=(Papp, A-B with inhibitor−Papp, A-B without inhibitor)/Papp, A-B with inhibitor where Papp, A-B with inhibitor and Papp, A-B without inhibitor represent the apparent permeability of test compound from the apical to basal side of the cellular monolayer in the presence and absence of 10 μM P-gp inhibitor GF120918, respectively.
# All samples were analyzed on LC/MS/MS using an AB Sciex API 4000 instrument, coupled to a Shimadzu LC-20AD LC Pump system. Analytical samples were separated using a Waters Atlantis T3 dC18 reverse phase HPLC column (10 mm×2.1 mm) at a flow rate of 0.5 mL/min. The mobile phase consisted of 0.1% formic acid in water (solvent A) and 0.1% formic acid in acetonitrile (solvent B).
# [4] = Rat, PO, 10 mg/kg equiv., n = 4, analyte: Parent (BASE STRUCTURE)
# [5] = Rat, PO, 10 mg/kg equiv., n = 4, analyte: Prodrug
# [6] = +GF120918 (10 μM), 10 μM compound
# [7] = rat, dosed as prodrug, 10 mg/kg equivalent of Base Structure, analyte Parent (Base Structure), Average
# [8] = rat, dosed as prodrug, 10 mg/kg equivalent of Base Structure, analyte Parent (Base Structure), Combined (average ± std. dev.)
# [9] = rat, dosed as prodrug, 10 mg/kg equivalent of Base Structure, analyte Parent (Base Structure), individual animals, 10 mg/kg
# [10] = rat, dosed as prodrug, 10 mg/kg equivalent of Base Structure, analyte Prodrug, Average
# [11] = rat, dosed as prodrug, 10 mg/kg equivalent of Base Structure, analyte Prodrug, Combined (average ± std. dev.)
# [12] = rat, dosed as prodrug, 10 mg/kg equivalent of Base Structure, analyte Prodrug, individual animals, 10 mg/kg
smiles,measurement,setting,value
CCCCCC(=O)NC(Cc1ccc(OP(=O)(O)O)cc1)C(=O)N[C@H](C(=O)NCCCCCC(N)=O)C(C)CC.N.N (stereo partly drawn) [Compound A29] (Hexanoyl-[ξpY]-[Ile(3ξ)]-[Ahx]-NH2),SIF Stability (pH 6.8) Half-Life (min),[1]; +Pancreatin (1%),Neg.
same,SIF Stability (pH 6.8) 0 min,[1]; +Pancreatin (1%),100%
same,SIF Stability (pH 6.8) 60 min,[1]; +Pancreatin (1%),94%
same,SIF Stability (pH 6.8) 120 min,[1]; +Pancreatin (1%),98%
same,SIF Stability (pH 6.8) 240 min,[1]; +Pancreatin (1%),104%
same,SIF Stability (pH 6.8) Half-Life (min),[1]; −Pancreatin,Neg.
same,SIF Stability (pH 6.8) 0 min,[1]; −Pancreatin,100%
same,SIF Stability (pH 6.8) 60 min,[1]; −Pancreatin,96%
same,SIF Stability (pH 6.8) 120 min,[1]; −Pancreatin,97%
same,SIF Stability (pH 6.8) 240 min,[1]; −Pancreatin,103%
same,SGF Stability (pH 1.2) Half-Life (min),[2]; +Pepsin (0.32%),225.0 min
same,SGF Stability (pH 1.2) 0 min,[2]; +Pepsin (0.32%),100%
same,SGF Stability (pH 1.2) 60 min,[2]; +Pepsin (0.32%),86%
same,SGF Stability (pH 1.2) 120 min,[2]; +Pepsin (0.32%),63%
same,SGF Stability (pH 1.2) 240 min,[2]; +Pepsin (0.32%),49%
same,SGF Stability (pH 1.2) Half-Life (min),[2]; −Pepsin,Neg.
same,SGF Stability (pH 1.2) 0 min,[2]; −Pepsin,100%
same,SGF Stability (pH 1.2) 60 min,[2]; −Pepsin,117%
same,SGF Stability (pH 1.2) 120 min,[2]; −Pepsin,129%
same,SGF Stability (pH 1.2) 240 min,[2]; −Pepsin,123%
same,AUC0-24,[3]; [4],35.9 ± 27.6 ng·h/mL
same,AUC0-inf,[3]; [4],48.6 ± 26.5 ng·h/mL
same,Cmax,[3]; [4],39.7 ± 74.2 ng/mL
same,Tmax (h),[3]; [4],2.1 ± 4^ h
same,half-life,[3]; [4],15.7 ± 14.3 h
same,Tmax,[3]; [5],0 h
same,Abs. Quotient,Caco-2 cells,0.83
same,Caco-2 Cells Permeability Recovery Rate,Caco-2 cells; [6],76%
same,Caco-2 Cells Permeability Recovery Rate,"Caco-2 cells; −GF120918, 10 μM compound",86%
CCCCCC(=O)NC(Cc1ccc(OP(=O)(OCCN(C)C)OCCN(C)C)cc1)C(=O)NC(C(=O)NCCCCCC(N)=O)C(C)CC (stereo not drawn) [Compound A18],SIF Stability (pH 6.8) Half-Life (min),[1]; +Pancreatin (1%),39.4 min
same,SIF Stability (pH 6.8) 0 min,[1]; +Pancreatin (1%),100%
same,SIF Stability (pH 6.8) 60 min,[1]; +Pancreatin (1%),40%
same,SIF Stability (pH 6.8) 120 min,[1]; +Pancreatin (1%),12%
same,SIF Stability (pH 6.8) 240 min,[1]; +Pancreatin (1%),25%
same,SIF Stability (pH 6.8) Half-Life (min),[1]; −Pancreatin,30.2 min
same,SIF Stability (pH 6.8) 0 min,[1]; −Pancreatin,100%
same,SIF Stability (pH 6.8) 60 min,[1]; −Pancreatin,25%
same,SIF Stability (pH 6.8) 120 min,[1]; −Pancreatin,17%
same,SIF Stability (pH 6.8) 240 min,[1]; −Pancreatin,8%
same,SGF Stability (pH 1.2) Half-Life (min),[2]; +Pepsin (0.32%),46.4 min
same,SGF Stability (pH 1.2) 0 min,[2]; +Pepsin (0.32%),100%
same,SGF Stability (pH 1.2) 60 min,[2]; +Pepsin (0.32%),52%
same,SGF Stability (pH 1.2) 120 min,[2]; +Pepsin (0.32%),17%
same,SGF Stability (pH 1.2) 240 min,[2]; +Pepsin (0.32%),18%
same,SGF Stability (pH 1.2) Half-Life (min),[2]; −Pepsin,42.6 min
same,SGF Stability (pH 1.2) 0 min,[2]; −Pepsin,100%
same,SGF Stability (pH 1.2) 60 min,[2]; −Pepsin,51%
same,SGF Stability (pH 1.2) 120 min,[2]; −Pepsin,14%
same,SGF Stability (pH 1.2) 240 min,[2]; −Pepsin,15%
same,AUC0-24,[3]; [4],4.1 ± 3.8 ng·h/mL
same,AUC0-inf (ng · h/mL),[3]; [4],6.8 ± 4^ ng · h/mL
same,Cmax,[3]; [4],3.1 ± 2.5 ng/mL
same,Tmax,[3]; [4],0.2 ± 0.1 h
same,half-life,[3]; [4],3.5 ± 2.6 h
same,AUC0-24,[3]; [5],4.9 ± 2.6 ng·h/mL
same,Cmax,[3]; [5],3.8 ± 0.1 ng/mL
same,Tmax,[3]; [5],1.5 ± 0.7 h
same,AUC 0-inf_obs,[3]; [7],6.838 ng·h/mL
same,AUC 0-t,[3]; [7],4.14 ng·h/mL
same,AUMC 0-inf_obs,[3]; [7],46.7 ng/ml * h^2
same,Cl/F_obs,[3]; [7],1.944 (mg/kg)/(ng/ml)/h
same,Cmax,[3]; [7],3.14 ng/mL
same,Lambda_z,[3]; [7],0.523 h⁻¹
same,MRT 0-inf_obs,[3]; [7],5.185 h
same,Tlag,[3]; [7],0 h
same,Tmax,[3]; [7],0.165 h
same,Vz/F_obs,[3]; [7],6.707 (mg/kg)/(ng/ml)
same,t1/2,[3]; [7],3.49 h
same,AUC 0-inf_obs,[3]; [8],6.8 ± 4 ng·h/mL
same,AUC 0-t,[3]; [8],4.1 ± 3.8 ng·h/mL
same,AUMC 0-inf_obs,[3]; [8],46.7 ± 47.2 ng/ml * h^2
same,Cl/F_obs,[3]; [8],1.9 ± 1.1 (mg/kg)/(ng/ml)/h
same,Cmax,[3]; [8],3.1 ± 2.5 ng/mL
same,Lambda_z,[3]; [8],0.5 ± 0.7 h⁻¹
same,MRT 0-inf_obs,[3]; [8],5.2 ± 3.9 h
same,Tlag,[3]; [8],0 ± 0 h
same,Tmax,[3]; [8],0.2 ± 0.1 h
same,Vz/F_obs,[3]; [8],6.7 ± 3.2 (mg/kg)/(ng/ml)
same,t1/2,[3]; [8],3.5 ± 2.6 h
same,Tlag,"[3]; rat, dosed as prodrug, 10 mg/kg equivalent of Base Structure, analyte Parent (Base Structure), individual animals",0 h
same,AUC 0-inf_obs,[3]; [9],3.49 ng·h/mL and 3.404 ng·h/mL and 9.232 ng·h/mL and 11.23 ng·h/mL
same,AUC 0-t,[3]; [9],1.664 ng·h/mL and 3.218 ng·h/mL and 1.903 ng·h/mL and 9.777 ng·h/mL
same,AUMC 0-inf_obs,[3]; [9],10.68 ng/ml * h^2 and 2.586 ng/ml * h^2 and 76.05 ng/ml * h^2 and 97.48 ng/ml * h^2
same,Cl/F_obs,[3]; [9],2.866 (mg/kg)/(ng/ml)/h and 2.938 (mg/kg)/(ng/ml)/h and 1.083 (mg/kg)/(ng/ml)/h and 0.8908 (mg/kg)/(ng/ml)/h
same,Cmax,[3]; [9],1.3 ng/mL and 3.37 ng/mL and 1.27 ng/mL and 6.62 ng/mL
same,Lambda_z,[3]; [9],0.3303 h⁻¹ and 1.518 h⁻¹ and 0.1231 h⁻¹ and 0.1201 h⁻¹
same,MRT 0-inf_obs,[3]; [9],3.06 h and 0.7598 h and 8.238 h and 8.683 h
same,Tmax,[3]; [9],0.25 h (2×) and 0.08 h (2×)
same,Vz/F_obs,[3]; [9],8.676 (mg/kg)/(ng/ml) and 1.935 (mg/kg)/(ng/ml) and 8.802 (mg/kg)/(ng/ml) and 7.417 (mg/kg)/(ng/ml)
same,t1/2,[3]; [9],2.099 h and 0.4565 h and 5.632 h and 5.771 h
same,AUC 0-t,[3]; [10],4.949 ng·h/mL
same,Cmax,[3]; [10],3.76 ng/mL
same,Tlag,[3]; [10],0 h
same,Tmax,[3]; [10],1.5 h
same,AUC 0-t,[3]; [11],4.9 ± 2.6 ng·h/mL
same,Cmax,[3]; [11],3.8 ± 0.1 ng/mL
same,Tlag,[3]; [11],0 ± 0 h
same,Tmax,[3]; [11],1.5 ± 0.7 h
same,Tlag,"[3]; rat, dosed as prodrug, 10 mg/kg equivalent of Base Structure, analyte Prodrug, individual animals",0 h
same,AUC 0-t,[3]; [12],6.8 ng·h/mL and 3.099 ng·h/mL
same,Cmax,[3]; [12],3.84 ng/mL and 3.68 ng/mL
same,Tmax,[3]; [12],2 h and 1 h
same,Abs. Quotient,Caco-2 cells,0.54
same,Caco-2 Cells Permeability Recovery Rate,Caco-2 cells; [6],90%
same,Caco-2 Cells Permeability Recovery Rate,"Caco-2 cells; −GF120918, 10 μM compound",48%
